Results: article PMC10382584, “Macrocyclization of linear molecules by deep learning to facilitate macrocyclic drug candidates discovery” (Nature Communications, 2023)

What was measured:
Assay in all cases: biochemical
Parameters in all cases: DiscoveRx KINOMEscan competition binding, percent of DMSO control signal at 100 nM
Conditions in all cases: read-out: Fig. 4a / Percent Control / Compound 1; percent of DMSO control, competition binding
DYRK1A = DYRK1A (Homo sapiens, UniProt Q13627)
[1] = biological target: T1, ABL1(E255K)-phosphorylated (Homo sapiens, UniProt P00519, E255K)
T1 construct: phosphorylated

SRPK1 = SRPK1 (Homo sapiens, UniProt Q96SB4)
Sequence of SRPK1 (Q96SB4 whole entry): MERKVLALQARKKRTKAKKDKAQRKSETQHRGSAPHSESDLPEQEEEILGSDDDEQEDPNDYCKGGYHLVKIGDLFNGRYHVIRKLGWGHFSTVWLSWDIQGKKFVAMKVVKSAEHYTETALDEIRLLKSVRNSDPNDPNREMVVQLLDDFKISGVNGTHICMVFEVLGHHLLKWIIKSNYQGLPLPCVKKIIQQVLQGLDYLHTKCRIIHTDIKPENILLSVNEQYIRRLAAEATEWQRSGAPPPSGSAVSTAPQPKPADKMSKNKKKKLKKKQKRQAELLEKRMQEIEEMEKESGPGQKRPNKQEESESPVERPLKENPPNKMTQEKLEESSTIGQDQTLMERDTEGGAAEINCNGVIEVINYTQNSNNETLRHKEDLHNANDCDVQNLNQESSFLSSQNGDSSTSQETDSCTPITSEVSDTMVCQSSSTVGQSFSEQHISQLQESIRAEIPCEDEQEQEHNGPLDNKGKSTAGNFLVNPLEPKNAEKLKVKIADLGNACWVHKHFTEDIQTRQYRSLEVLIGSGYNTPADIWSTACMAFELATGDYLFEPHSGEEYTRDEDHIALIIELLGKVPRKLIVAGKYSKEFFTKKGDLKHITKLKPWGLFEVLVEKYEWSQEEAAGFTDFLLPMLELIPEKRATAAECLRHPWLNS

ADCK3 = biological target: T2, ADCK3 (Homo sapiens, UniProt Q8NI60)
T2 construct: gene COQ8A
T2 sequence (Q8NI60 whole entry): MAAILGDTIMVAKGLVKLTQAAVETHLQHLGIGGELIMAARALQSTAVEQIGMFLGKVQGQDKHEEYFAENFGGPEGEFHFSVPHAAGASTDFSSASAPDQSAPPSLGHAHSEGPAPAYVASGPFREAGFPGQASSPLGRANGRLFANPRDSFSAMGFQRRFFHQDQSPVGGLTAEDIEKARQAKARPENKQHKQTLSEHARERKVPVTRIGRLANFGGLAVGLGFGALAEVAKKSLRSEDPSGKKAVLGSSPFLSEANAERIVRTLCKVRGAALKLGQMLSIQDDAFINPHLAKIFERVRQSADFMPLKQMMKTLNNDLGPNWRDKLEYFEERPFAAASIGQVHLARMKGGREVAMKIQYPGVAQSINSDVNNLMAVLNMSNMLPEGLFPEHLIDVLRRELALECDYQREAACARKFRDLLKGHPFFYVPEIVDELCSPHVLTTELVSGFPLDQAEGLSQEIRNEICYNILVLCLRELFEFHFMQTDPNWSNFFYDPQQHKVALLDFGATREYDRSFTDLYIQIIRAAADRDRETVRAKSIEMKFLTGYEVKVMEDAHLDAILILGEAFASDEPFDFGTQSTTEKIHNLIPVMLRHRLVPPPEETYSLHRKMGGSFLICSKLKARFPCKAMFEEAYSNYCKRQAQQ

BRSK2 = BRSK2 (Homo sapiens, UniProt Q8IWQ3)
[2] = biological target: T3, ABL1(Q252H)-phosphorylated (Homo sapiens, UniProt P00519, Q252H)
T3 construct: phosphorylated

PKN2 = PKN2 (Homo sapiens, UniProt Q16513)
FLT1 = FLT1 (Homo sapiens, UniProt P17948)
Sequence of FLT1 (P17948 whole entry): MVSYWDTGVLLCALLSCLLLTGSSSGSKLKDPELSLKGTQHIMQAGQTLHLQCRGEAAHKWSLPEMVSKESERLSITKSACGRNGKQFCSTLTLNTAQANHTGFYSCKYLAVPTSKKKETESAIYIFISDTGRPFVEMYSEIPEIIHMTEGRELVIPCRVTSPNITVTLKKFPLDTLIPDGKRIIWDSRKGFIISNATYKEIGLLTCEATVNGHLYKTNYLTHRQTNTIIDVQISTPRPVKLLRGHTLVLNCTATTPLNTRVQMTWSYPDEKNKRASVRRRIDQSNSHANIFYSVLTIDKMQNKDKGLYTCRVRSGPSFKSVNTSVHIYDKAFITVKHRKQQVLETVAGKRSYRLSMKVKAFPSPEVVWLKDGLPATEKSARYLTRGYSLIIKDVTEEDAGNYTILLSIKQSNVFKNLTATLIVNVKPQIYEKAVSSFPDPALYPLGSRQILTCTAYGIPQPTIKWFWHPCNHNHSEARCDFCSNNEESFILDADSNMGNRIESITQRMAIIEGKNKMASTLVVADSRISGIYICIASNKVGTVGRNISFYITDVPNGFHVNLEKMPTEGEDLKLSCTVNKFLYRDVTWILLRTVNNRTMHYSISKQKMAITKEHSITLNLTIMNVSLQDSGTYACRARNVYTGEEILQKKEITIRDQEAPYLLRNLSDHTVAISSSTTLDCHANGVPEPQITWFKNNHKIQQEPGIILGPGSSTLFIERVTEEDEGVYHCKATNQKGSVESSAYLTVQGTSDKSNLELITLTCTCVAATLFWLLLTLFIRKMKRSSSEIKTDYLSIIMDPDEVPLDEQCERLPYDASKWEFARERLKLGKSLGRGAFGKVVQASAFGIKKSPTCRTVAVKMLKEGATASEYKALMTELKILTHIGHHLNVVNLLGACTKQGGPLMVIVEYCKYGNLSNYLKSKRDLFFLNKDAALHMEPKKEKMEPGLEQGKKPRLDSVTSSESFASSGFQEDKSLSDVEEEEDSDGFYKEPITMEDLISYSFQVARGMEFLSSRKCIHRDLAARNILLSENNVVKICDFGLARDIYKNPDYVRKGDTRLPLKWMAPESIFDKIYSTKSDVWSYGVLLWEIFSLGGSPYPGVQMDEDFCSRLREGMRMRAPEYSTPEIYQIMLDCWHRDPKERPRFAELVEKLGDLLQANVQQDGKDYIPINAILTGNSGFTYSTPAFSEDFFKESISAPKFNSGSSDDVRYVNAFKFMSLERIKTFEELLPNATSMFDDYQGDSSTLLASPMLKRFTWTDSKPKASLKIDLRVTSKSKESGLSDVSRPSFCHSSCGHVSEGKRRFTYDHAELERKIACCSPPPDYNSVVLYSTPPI

PIKFYVE = PIKFYVE (Homo sapiens, UniProt Q9Y2I7)
STK35 = STK35 (Homo sapiens, UniProt Q8TDR2)
TAOK2 = TAOK2 (Homo sapiens, UniProt Q9UL54)
WNK1 = WNK1 (Homo sapiens, UniProt Q9H4A3)
CAMK2B = CAMK2B (Homo sapiens, UniProt Q13554)
Sequence of CAMK2B (Q13554 whole entry): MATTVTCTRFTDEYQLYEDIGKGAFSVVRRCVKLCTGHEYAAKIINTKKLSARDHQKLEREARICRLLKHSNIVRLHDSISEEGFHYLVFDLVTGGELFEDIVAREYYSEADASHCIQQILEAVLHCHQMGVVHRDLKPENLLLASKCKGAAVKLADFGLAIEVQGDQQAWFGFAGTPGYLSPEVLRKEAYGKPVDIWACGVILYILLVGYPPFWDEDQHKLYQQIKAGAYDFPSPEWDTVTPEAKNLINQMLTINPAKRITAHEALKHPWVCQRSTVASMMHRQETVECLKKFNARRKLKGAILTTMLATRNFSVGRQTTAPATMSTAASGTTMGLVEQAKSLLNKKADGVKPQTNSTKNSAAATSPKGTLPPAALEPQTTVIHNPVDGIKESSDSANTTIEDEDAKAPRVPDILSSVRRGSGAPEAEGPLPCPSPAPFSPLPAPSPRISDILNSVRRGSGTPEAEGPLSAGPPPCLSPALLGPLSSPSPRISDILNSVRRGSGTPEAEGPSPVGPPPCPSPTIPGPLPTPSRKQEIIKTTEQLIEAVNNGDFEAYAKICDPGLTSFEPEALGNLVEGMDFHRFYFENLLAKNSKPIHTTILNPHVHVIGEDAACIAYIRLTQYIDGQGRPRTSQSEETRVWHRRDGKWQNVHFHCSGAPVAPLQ

CAMK4 = CAMK4 (Homo sapiens, UniProt Q16566)
TAOK3 = TAOK3 (Homo sapiens, UniProt Q9H2K8)
RIOK2 = RIOK2 (Homo sapiens, UniProt Q9BVS4)
ZAK = biological target: T4, ZAK (Homo sapiens, UniProt Q9NYL2)
T4 construct: gene MAP3K20

TBK1 = TBK1 (Homo sapiens, UniProt Q9UHD2)
OSR1 = biological target: T5, OSR1 (Homo sapiens, UniProt O95747)
T5 construct: gene OXSR1

STK39 = STK39 (Homo sapiens, UniProt Q9UEW8)
ALK = ALK (Homo sapiens, UniProt Q9UM73)
CSNK1G1 = CSNK1G1 (Homo sapiens, UniProt Q9HCP0)
Sequence of CSNK1G1 (Q9HCP0 whole entry): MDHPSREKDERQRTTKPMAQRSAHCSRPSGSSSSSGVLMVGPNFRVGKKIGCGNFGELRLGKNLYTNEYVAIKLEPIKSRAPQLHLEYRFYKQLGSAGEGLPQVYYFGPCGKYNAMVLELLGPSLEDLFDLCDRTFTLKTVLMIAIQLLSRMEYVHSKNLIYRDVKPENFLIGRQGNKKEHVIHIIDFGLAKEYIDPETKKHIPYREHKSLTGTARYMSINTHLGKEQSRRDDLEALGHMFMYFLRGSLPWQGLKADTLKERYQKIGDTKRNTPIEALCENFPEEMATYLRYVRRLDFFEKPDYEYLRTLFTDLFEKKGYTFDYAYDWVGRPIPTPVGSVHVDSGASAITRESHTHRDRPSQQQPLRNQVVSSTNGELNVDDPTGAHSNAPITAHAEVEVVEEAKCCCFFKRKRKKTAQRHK

EPHA4 = EPHA4 (Homo sapiens, UniProt P54764)
Sequence of EPHA4 (P54764 whole entry): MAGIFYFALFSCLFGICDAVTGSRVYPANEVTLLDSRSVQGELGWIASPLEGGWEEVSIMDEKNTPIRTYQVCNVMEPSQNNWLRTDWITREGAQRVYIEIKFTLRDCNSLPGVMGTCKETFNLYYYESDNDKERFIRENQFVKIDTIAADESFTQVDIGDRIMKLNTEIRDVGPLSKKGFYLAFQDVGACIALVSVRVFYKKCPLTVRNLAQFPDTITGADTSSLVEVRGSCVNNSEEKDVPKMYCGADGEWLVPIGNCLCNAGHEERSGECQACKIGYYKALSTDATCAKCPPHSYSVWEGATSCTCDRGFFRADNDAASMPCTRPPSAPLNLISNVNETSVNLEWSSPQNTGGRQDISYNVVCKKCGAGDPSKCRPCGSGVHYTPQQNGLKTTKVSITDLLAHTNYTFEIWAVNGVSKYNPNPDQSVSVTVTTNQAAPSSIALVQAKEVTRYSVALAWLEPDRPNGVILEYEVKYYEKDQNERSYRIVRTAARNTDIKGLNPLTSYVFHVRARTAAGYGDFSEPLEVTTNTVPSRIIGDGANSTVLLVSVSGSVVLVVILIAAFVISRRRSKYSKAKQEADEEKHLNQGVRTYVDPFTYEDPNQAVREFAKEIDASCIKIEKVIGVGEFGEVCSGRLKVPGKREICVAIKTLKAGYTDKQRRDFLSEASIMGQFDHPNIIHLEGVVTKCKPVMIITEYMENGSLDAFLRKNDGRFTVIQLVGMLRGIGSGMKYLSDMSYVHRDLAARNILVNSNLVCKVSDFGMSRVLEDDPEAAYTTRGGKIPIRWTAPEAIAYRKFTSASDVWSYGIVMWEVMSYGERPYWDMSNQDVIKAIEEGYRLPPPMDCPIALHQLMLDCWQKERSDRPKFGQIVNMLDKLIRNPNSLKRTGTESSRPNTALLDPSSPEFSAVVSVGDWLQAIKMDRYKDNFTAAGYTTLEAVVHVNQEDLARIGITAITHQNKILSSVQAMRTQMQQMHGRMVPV

MAP4K5 = MAP4K5 (Homo sapiens, UniProt Q9Y4K4)
p38-gamma = biological target: T6, p38-gamma (Homo sapiens, UniProt P53778)
T6 construct: gene MAPK12
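Also: KINOMEscan kinase panel binding assay, signal normalized between DMSO as 100% and a positive control compound as 0%.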

Work on `Cc1cnc2nc1Nc1cccc(c1)COCc1cc(ccc1OCCN1CCCC1)N2` [Compound 1] yielded a remaining binding at 0.1 µM (DYRK1A) of 88%, a remaining binding at 0.1 µM [1] of 79% and a remaining binding at 0.1 µM (SRPK1) of 97%. For the same compound, the remaining binding at 0.1 µM (ADCK3) was 96%, the remaining binding at 0.1 µM (BRSK2) was 94% and the remaining binding at 0.1 µM [2] was 59%. It also gave a remaining binding at 0.1 µM (PKN2) of 100%, a remaining binding at 0.1 µM (FLT1) of 100% and a remaining binding at 0.1 µM (PIKFYVE) of 100%. The remaining binding at 0.1 µM (STK35) was 92%, the remaining binding at 0.1 µM (TAOK2) was 63% and the remaining binding at 0.1 µM (WNK1) was 90%. It also gave a remaining binding at 0.1 µM (CAMK2B) of 94%, a remaining binding at 0.1 µM (CAMK4) of 100% and a remaining binding at 0.1 µM (TAOK3) of 56%. The remaining binding at 0.1 µM (RIOK2) was 84%, the remaining binding at 0.1 µM (ZAK) was 100% and the remaining binding at 0.1 µM (TBK1) was 76%. It also gave a remaining binding at 0.1 µM (OSR1) of 66%, a remaining binding at 0.1 µM (STK39) of 62% and a remaining binding at 0.1 µM (ALK) of 79%. For the same compound, the remaining binding at 0.1 µM (CSNK1G1) was 91%, the remaining binding at 0.1 µM (EPHA4) was 100% and the remaining binding at 0.1 µM (MAP4K5) was 98%. The remaining binding at 0.1 µM (p38-gamma) was 100%.
